Test results as given in patent US8541418B2, “Inhibitors of polo-like kinase” (Elan Pharmaceutical, Inc., priority 2009, dated 2013).
Like-named read-outs stand apart in the source and are kept apart here.

Assays:
PLK1 [1] = target: T1, PLK1 (Homo sapiens, UniProt P53350); assay: Kinase panel screening at InVitrogen, PLK1; settings: 10 μM compound
PLK2 [2] = target: T2, PLK2 (Homo sapiens, UniProt Q9NYY3); assay: Kinase panel screening at InVitrogen, PLK2; settings: 10 μM compound
PLK2 [3] = target: T2, PLK2; assay: PLK TR-FRET peptide assay, PLK2; assay type: biochemical; settings: for IC50: read-out: Plk2 IC50
PLK1 [4] = target: T1, PLK1; assay: PLK TR-FRET peptide assay, PLK1; assay type: biochemical
PLK3 = PLK3 (Homo sapiens, UniProt Q9H4B4); assay: PLK TR-FRET peptide assay, PLK3; assay type: biochemical
Chain of PLK3 (Q9H4B4 whole entry): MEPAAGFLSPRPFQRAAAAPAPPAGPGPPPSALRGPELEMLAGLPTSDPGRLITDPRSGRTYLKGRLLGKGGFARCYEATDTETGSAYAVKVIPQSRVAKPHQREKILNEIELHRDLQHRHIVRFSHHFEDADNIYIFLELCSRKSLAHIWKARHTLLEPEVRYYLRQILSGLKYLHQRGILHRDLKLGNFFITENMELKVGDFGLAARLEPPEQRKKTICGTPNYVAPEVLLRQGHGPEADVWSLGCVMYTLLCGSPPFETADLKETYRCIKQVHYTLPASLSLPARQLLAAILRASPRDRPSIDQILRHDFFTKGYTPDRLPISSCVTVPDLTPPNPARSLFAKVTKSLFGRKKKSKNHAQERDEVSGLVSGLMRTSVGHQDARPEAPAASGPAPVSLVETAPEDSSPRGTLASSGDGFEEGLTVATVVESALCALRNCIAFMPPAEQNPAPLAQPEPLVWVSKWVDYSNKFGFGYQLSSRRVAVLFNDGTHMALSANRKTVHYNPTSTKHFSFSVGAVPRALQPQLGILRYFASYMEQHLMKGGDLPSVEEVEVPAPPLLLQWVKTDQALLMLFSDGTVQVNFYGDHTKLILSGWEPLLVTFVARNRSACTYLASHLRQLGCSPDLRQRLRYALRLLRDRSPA

KDR = KDR (Homo sapiens, UniProt P35968); assay: Kinase panel screening and titration, KDR; settings: read-out: inhibition of KDR
Chain of KDR (P35968 20-1356): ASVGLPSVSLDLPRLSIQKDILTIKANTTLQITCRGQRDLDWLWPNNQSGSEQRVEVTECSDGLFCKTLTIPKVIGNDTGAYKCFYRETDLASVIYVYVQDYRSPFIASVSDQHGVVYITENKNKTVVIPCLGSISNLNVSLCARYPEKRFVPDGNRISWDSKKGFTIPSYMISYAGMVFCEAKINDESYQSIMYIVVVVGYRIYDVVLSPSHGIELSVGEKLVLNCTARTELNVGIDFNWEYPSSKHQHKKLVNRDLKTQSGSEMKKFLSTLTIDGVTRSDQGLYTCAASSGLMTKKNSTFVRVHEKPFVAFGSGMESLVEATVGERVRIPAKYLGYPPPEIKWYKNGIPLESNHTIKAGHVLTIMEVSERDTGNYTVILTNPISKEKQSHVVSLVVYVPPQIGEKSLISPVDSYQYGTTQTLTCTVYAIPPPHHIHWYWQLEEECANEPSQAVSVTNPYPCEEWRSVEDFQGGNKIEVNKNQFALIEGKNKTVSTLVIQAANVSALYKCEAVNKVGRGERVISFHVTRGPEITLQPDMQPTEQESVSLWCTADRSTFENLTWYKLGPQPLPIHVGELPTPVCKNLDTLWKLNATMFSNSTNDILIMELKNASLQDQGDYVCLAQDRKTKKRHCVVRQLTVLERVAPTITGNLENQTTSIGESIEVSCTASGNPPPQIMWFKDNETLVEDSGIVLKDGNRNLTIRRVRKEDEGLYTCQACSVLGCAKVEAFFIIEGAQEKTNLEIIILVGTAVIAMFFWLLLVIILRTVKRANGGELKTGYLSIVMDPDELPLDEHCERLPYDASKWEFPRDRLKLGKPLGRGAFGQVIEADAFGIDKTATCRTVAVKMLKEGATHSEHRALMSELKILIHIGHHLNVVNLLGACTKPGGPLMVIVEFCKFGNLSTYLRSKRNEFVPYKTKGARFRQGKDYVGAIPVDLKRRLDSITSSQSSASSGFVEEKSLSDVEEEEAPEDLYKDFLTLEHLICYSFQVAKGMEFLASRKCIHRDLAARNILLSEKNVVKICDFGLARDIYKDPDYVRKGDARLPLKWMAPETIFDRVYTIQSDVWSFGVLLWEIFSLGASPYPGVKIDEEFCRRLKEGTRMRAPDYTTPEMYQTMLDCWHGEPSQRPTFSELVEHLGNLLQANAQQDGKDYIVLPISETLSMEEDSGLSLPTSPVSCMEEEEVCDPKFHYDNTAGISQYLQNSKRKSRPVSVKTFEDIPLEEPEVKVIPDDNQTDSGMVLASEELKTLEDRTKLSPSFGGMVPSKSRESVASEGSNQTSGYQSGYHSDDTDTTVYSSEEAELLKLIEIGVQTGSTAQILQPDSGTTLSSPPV

ABL1 = ABL1 (Homo sapiens, UniProt P00519); assay: Kinase panel screening and titration, ABL1; settings: read-out: inhibition of ABL1
Chain of ABL1 (P00519 whole entry): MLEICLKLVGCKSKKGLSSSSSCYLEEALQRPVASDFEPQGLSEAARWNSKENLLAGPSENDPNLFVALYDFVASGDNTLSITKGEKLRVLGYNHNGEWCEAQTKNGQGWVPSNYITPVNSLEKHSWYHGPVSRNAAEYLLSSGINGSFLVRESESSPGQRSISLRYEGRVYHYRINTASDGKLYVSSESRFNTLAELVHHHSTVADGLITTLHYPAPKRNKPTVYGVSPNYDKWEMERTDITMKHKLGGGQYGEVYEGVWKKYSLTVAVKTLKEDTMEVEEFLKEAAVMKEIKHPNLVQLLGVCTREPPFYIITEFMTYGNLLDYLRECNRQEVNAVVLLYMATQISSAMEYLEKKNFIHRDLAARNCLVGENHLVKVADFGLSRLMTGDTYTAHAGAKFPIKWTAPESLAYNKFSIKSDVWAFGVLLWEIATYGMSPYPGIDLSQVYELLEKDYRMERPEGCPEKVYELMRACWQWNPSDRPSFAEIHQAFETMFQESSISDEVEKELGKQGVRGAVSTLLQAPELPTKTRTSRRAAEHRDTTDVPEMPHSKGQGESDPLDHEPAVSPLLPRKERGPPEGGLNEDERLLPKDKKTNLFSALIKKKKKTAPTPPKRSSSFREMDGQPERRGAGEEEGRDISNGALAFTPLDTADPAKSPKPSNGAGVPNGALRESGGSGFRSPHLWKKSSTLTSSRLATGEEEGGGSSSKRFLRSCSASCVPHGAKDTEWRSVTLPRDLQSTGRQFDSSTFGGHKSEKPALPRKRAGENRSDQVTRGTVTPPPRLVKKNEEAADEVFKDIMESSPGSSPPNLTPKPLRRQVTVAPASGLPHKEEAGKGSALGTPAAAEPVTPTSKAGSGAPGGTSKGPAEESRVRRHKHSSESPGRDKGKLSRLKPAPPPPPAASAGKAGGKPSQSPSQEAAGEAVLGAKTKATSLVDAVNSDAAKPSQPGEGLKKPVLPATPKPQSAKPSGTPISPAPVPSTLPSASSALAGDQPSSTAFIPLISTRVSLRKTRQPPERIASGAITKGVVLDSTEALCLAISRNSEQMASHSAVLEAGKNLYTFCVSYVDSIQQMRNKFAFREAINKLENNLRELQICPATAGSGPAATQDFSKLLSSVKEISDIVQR

[5] = tested on: over 300 kinases, including CDK-1, CDK-2, CDK-5, CLK-1, CLK-2, CLK-3, CLK-4, NEK-1, NEK-2, NEK-4, NEK-6, NEK-7, MAP4K4 and STK16; assay: Kinase panel screening at InVitrogen, over 300 kinases; settings: 10 μM compound; all but 21 of the kinases, including CDK-1, CDK-2, CDK-5, CLK-1 to CLK-4, NEK-1, -2, -4, -6, -7, MAP4K4, STK16
[6] = PLK TR-FRET peptide assay, GST-PLK2, 60 min reaction
[7] = GST-PLK3, 15 min reaction, read-out: Plk3 IC50

T2 sequence (Q9NYY3 whole entry): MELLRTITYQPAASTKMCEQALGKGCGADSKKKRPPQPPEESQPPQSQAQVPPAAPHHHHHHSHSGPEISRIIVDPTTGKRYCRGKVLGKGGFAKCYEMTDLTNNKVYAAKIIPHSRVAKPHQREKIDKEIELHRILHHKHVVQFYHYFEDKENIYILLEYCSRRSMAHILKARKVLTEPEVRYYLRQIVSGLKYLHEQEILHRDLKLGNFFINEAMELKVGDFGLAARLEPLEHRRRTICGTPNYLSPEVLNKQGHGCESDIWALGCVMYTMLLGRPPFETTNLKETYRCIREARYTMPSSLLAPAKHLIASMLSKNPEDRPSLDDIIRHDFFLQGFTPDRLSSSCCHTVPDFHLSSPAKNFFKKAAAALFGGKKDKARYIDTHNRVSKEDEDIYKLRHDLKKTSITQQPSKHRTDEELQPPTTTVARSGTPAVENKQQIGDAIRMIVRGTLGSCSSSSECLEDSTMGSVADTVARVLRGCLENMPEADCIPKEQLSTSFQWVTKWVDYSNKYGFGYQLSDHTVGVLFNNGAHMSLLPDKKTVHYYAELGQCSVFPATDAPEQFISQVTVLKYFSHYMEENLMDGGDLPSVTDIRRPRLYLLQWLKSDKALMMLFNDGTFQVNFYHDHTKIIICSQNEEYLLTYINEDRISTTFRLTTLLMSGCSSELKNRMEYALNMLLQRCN
T1 sequence (P53350 whole entry): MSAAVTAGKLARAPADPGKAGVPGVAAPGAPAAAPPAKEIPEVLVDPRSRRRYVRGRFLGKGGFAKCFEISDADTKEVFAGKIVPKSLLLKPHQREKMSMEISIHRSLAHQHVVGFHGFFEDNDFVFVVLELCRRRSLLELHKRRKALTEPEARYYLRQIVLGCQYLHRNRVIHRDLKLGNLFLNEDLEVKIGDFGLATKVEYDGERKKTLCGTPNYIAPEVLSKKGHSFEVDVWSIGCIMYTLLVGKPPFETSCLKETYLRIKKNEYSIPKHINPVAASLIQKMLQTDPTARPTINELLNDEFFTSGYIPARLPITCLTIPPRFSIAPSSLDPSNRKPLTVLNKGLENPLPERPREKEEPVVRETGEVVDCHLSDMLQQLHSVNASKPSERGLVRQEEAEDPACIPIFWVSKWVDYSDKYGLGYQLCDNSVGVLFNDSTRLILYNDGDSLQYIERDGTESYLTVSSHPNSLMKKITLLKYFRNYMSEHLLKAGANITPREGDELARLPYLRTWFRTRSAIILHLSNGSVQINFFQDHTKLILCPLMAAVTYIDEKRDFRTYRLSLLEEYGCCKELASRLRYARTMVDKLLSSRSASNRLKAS

Compound | IC50 (PLK2 [3]; [6]) [nM] | IC50 (PLK1 [4]; GST-PLK1, 60 min reaction) [µM] | IC50 (PLK3; [7]) [µM] | also measured
CC[C@@]12CCCN1c1nc(-n3ccnc3-c3ccccc3)ncc1N(C)C2=O [Example 76, (S)-6a-ethyl-5-methyl-2-(2-phenyl-1H-imidazol-1-yl)-6a,7,8,9-tetrahydropyrrolo[2,1-h]pteridin-6(5H)-one] |  |  |  | activity against PLK1 in kinase panel (PLK1 [1]): potent; activity against PLK2 in kinase panel (PLK2 [2]): potent
CC[C@@H]1C(=O)N(C)c2cnc(-n3ccnc3-c3ccccc3)nc2N1C1CCCC1 [Example 26, (R)-8-cyclopentyl-7-ethyl-5-methyl-2-(2-phenyl-1H-imidazol-1-yl)-7,8-dihydropteridin-6(5H)-one] |  |  |  | activity against PLK2 in kinase panel (PLK2 [2]): potent
CC[C@@H]1C(=O)N(C)c2cnc(-n3ccnc3-c3cscn3)nc2N1C1CCCC1 [Example 68, (R)-8-cyclopentyl-7-ethyl-5-methyl-2-(2-(thiazol-4-yl)-1H-imidazol-1-yl)-7,8-dihydropteridin-6(5H)-one] | < 1000 | < 1 | < 1 | activity against PLK1 in kinase panel (PLK1 [1]): potent; activity against PLK2 in kinase panel (PLK2 [2]): potent
CC[C@@H]1C(=O)N(C)c2cnc(-n3ccnc3-c3cccc(F)c3)nc2N1C1CCOC1 (stereo partly drawn) [Example 192, (7R)-7-ethyl-2-(2-(3-fluorophenyl)-1H-imidazol-1-yl)-5-methyl-8-(tetrahydrofuran-3-yl)-7,8-dihydropteridin-6(5H)-one] | < 1000 | < 1 | 1 to 10 | inhibition at 10 µM (KDR): > 80%; inhibition at 10 µM (ABL1): > 80%; inhibition of kinases in panel of over 300 [5]: below 40%; activity against PLK1 in kinase panel (PLK1 [1]): potent; activity against PLK2 in kinase panel (PLK2 [2]): potent
CC[C@@]12CCCN1c1nc(-n3ccnc3-c3cccc(-n4cncn4)c3)ncc1N(C)C2=O [Example 273, (S)-2-(2-(3-(1H-1,2,4-triazol-1-yl)phenyl)-1H-imidazol-1-yl)-6a-ethyl-5-methyl-6a,7,8,9-tetrahydropyrrolo[2,1-h]pteridin-6(5H)-one] |  | 10 to 50 | > 50 | IC50 (PLK2 [3]): < 1000 nM
CC[C@@H]1C(=O)N(C)c2cnc(-c3ccncc3N)nc2N1C(C)C [Example 93, (R)-2-(3-aminopyridin-4-yl)-7-ethyl-8-isopropyl-5-methyl-7,8-dihydropteridin-6(5H)-one] | < 1000 | 1 to 10 | > 50 | 
CC[C@@H]1C(=O)N(C)c2cnc(-c3cnsc3-c3ccc(F)cc3)nc2N1c1cccc(C#N)c1 [Example 391, (R)-3-(7-ethyl-2-(5-(4-fluorophenyl)isothiazol-4-yl)-5-methyl-6-oxo-6,7-dihydropteridin-8(5H)-yl)benzonitrile] |  |  |  | IC50 (PLK2 [3]; PLK TR-FRET peptide assay, GST-PLK2): < 1000 nM; relative PLK2 activity of the enantiomers (PLK2 [3]; compared with the opposite enantiomer): more active compound; IC50 (PLK1 [4]; GST-PLK1): < 1 µM; IC50 (PLK3; GST-PLK3, read-out: Plk3 IC50): < 1 µM
CC[C@]12CCCCN1c1nc(-n3ccnc3-c3cccc(F)c3)ncc1N(C)C2=O [Example 265, (R)-6a-ethyl-2-(2-(3-fluorophenyl)-1H-imidazol-1-yl)-5-methyl-7,8,9,10-tetrahydro-5H-pyrido[2,1-h]pteridin-6(6aH)-one] | 10000 to 50000 | > 50 | > 50 | 
[2H]C([2H])([2H])N1C(=O)C(C([2H])([2H])C([2H])([2H])[2H])N(C([2H])(C([2H])([2H])[2H])C([2H])([2H])[2H])c2nc(-n3ccnc3-c3nccs3)ncc21 (centres unmarked) [Example 158, 7-perdeuteroethyl-8-perdeuteroisopropyl-5-trideuteromethyl-2-(2-(thiazol-2-yl)-1H-imidazol-1-yl)-7,8-dihydropteridin-6(5H)-one] | < 1000 | 1 to 10 | 10 to 50 | 
CC[C@@H]1C(=O)N(C)c2cnc(-n3ccnc3C3=CCOCC3)nc2N1C1CCCC1 [Example 84, (R)-8-cyclopentyl-2-(2-(3,6-dihydro-2H-pyran-4-yl)-1H-imidazol-1-yl)-7-ethyl-5-methyl-7,8-dihydropteridin-6(5H)-one] | < 1000 | 1 to 10 | 10 to 50 | 
CC[C@@H]1C(=O)N(C)c2cnc(-c3cncnc3-c3ccc(C(F)(F)F)cc3)nc2N1C(C)C [Example 168, (R)-7-ethyl-8-isopropyl-5-methyl-2-(4-(4-(trifluoromethyl)phenyl)pyrimidin-5-yl)-7,8-dihydropteridin-6(5H)-one] | 10000 to 50000 | 10 to 50 | > 50 | 
CC[C@@H]1C(=O)N(C)c2cnc(N3CCN=C3C3CC3)nc2N1C(C)C [Example 297, (R)-2-(2-cyclopropyl-4,5-dihydro-1H-imidazol-1-yl)-7-ethyl-8-isopropyl-5-methyl-7,8-dihydropteridin-6(5H)-one] | 10000 to 50000 | 10 to 50 | 10 to 50 | 
CC[C@@H]1C(=O)N(C)c2cnc(-n3ccnc3N3CCCC3=O)nc2N1C1CCCC1 [Example 82, (R)-8-cyclopentyl-7-ethyl-5-methyl-2-(2-(2-oxopyrrolidin-1-yl)-1H-imidazol-1-yl)-7,8-dihydropteridin-6(5H)-one] | 1000 to 10000 | 1 to 10 | 10 to 50 | 
CC[C@@H]1C(=O)N(C)c2cnc(-n3ccnc3-c3ccc(F)cn3)nc2N1C1CCCC1 [Example 271, (R)-8-cyclopentyl-7-ethyl-2-(2-(5-fluoropyridin-2-yl)-1H-imidazol-1-yl)-5-methyl-7,8-dihydropteridin-6(5H)-one] | < 1000 | < 1 | 1 to 10 | 
CC[C@@H]1C(=O)N(C)c2cnc(-n3nccc3-c3ccccc3)nc2N1C1CCC1 [Example 207, (R)-8-cyclobutyl-7-ethyl-5-methyl-2-(5-phenyl-1H-pyrazol-1-yl)-7,8-dihydropteridin-6(5H)-one] | < 1000 | < 1 | 1 to 10 | 
CC[C@@]12CCC(=O)N1c1nc(-n3ccnc3)ncc1N(C)C2=O [Example 311, (S)-6a-ethyl-2-(1H-imidazol-1-yl)-5-methyl-7,8-dihydropyrrolo[2,1-h]pteridine-6,9(5H,6aH)-dione] | > 50000 | > 50 | > 50 | 
CC[C@@H]1C(=O)N(C)c2cnc(-n3cnc(-c4ccccc4)c3)nc2N1C1CCCC1 [Example 36, (R)-8-cyclopentyl-7-ethyl-5-methyl-2-(4-phenyl-1H-imidazol-1-yl)-7,8-dihydropteridin-6(5H)-one] | < 1000 | < 1 | 10 to 50 | 

Continued, in another order:

IC50 (PLK2 [3]; [6]) [nM] | IC50 (PLK1 [4]; GST-PLK1, 60 min reaction) [µM] | IC50 (PLK3; [7]) [µM] | Compound | also measured
< 1000 | 10 to 50 | 10 to 50 | CC[C@@]12CCCN1c1nc(-n3ccnc3-c3ccc(Cl)s3)ncc1N(C)C2=O [Example 218, (S)-2-(2-(5-chlorothiophen-2-yl)-1H-imidazol-1-yl)-6a-ethyl-5-methyl-6a,7,8,9-tetrahydropyrrolo[2,1-h]pteridin-6(5H)-one] | 
10000 to 50000 | 10 to 50 | > 50 | CC[C@@H]1C(=O)N(C)c2cnc(-c3ccncc3NS(=O)(=O)c3ccccc3)nc2N1C1CCCC1 [Example 127, (R)—N-(4-(8-cyclopentyl-7-ethyl-5-methyl-6-oxo-5,6,7,8-tetrahydropteridin-2-yl)pyridin-3-yl)benzenesulfonamide] | 
< 1000 | < 1 | 1 to 10 | [2H]C([2H])([2H])N1C(=O)[C@@H](C([2H])([2H])C([2H])([2H])[2H])N(C([2H])(C([2H])([2H])[2H])C([2H])([2H])[2H])c2nc(-n3ccnc3-c3cc(F)cc(F)c3)ncc21 [Example 179, (R)-2-(2-(3,5-difluorophenyl)-1H-imidazol-1-yl)-7-perdeuteroethyl-8-perdeuteroisopropyl-5-trideuteromethyl-7,8-dihydropteridin-6(5H)-one] | 
1000 to 10000 | 10 to 50 | 10 to 50 | CC[C@@]12CCCN1c1nc(-c3cncnc3-c3ccccc3)ncc1N(C)C2=O [Example 222, (S)-6a-ethyl-5-methyl-2-(4-phenylpyrimidin-5-yl)-6a,7,8,9-tetrahydropyrrolo[2,1-h]pteridin-6(5H)-one] | 
< 1000 | 1 to 10 | 1 to 10 | CC[C@@H]1C(=O)N(C)c2cnc(-c3nccnc3-c3ccc(F)cc3)nc2N1C(C)C [Example 177, (R)-7-ethyl-2-(3-(4-fluorophenyl)pyrazin-2-yl)-8-isopropyl-5-methyl-7,8-dihydropteridin-6(5H)-one] | 
< 1000 | < 1 | 10 to 50 | [2H]C([2H])([2H])N1C(=O)C(C([2H])([2H])C([2H])([2H])[2H])N(C([2H])(C([2H])([2H])[2H])C([2H])([2H])[2H])c2nc(-n3ccnc3-c3cc(F)cc(F)c3)ncc21 (racemic) [Example 163, 2-(2-(3,5-difluorophenyl)-1H-imidazol-1-yl)-7-perdeuteroethyl-8-perdeuteroisopropyl-5-trideuteromethyl-7,8-dihydropteridin-6(5H)-one] | 
< 1000 | 1 to 10 | 1 to 10 | CC[C@@H]1C(=O)N(C)c2cnc(-n3ccnc3-c3ccc(F)c(F)c3)nc2N1C1CC(F)C1 (stereo partly drawn) [Example 229, (R)-2-(2-(3,4-difluorophenyl)-1H-imidazol-1-yl)-7-ethyl-8-(3-fluorocyclobutyl)-5-methyl-7,8-dihydropteridin-6(5H)-one] | 
